The text below walks through data of US6855730B2, “3-methylidenyl-2-indolinone modulators of protein kinase” (Sugen, Inc., priority 1998, dated 2005).

Test [1] has as its target T1, PDGFR-β (Homo sapiens, UniProt P09619).
T1 construct: host or cells: NIH 3T3
In words: Biochemical PDGFR assay (ELISA, PDGFR-β expressing NIH 3T3 cell lysate). To be noted: read-out: bio PDGF IC50. The procedure, abridged:
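Phosphorylation was read by ELISA (anti-phosphotyrosine serum, peroxidase secondary, ABTS at 410 nm) after a 30 min room-temperature reaction with 20 μM ATP, EDTA-stopped. Kinase was lysate-derived PDGFR-β (NIH 3T3) immobilised via 28D4C10 antibody, compound added 30 min before ATP.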
Background: An ELISA detects its analyte on a solid surface through an enzyme-linked reagent.

Test [2] addresses Myc-GyrB-FGFR fusion protein (Homo sapiens, UniProt P11362). Kind of test: Biochemical FGFR assay (ELISA). To be noted: read-out: bio fgfR1 IC50.
For test [3], the target named is T2, flkGST (Homo sapiens, UniProt P35968).
T2 construct: GST
In words: bio flkGST assay. The class given is biochemical.

For test [4], the target named is pyk2 (Homo sapiens, UniProt Q14289). In words: bio pyk2 assay. The class given is biochemical.
Test [5] has as its target EGFR (Homo sapiens, UniProt P00533). Kind of test: Biochemical EGFR assay (ELISA, A431 cell lysate). Also noted: A431 cell lysate (Screening Lab, SUGEN, Inc.); host or cells: A431. Conditions: read-out: bio EGFr IC50. An outline of the steps:
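EGFR captured from A431 cell lysate onto anti-EGFR-coated plates, then incubated with test compound for 30 min at room temperature. Tyrosine phosphorylation with ATP/MnCl2 was stopped with EDTA after 5 min and detected by anti-phosphotyrosine ELISA with peroxidase/ABTS read-out.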

Sequence of Myc-GyrB-FGFR fusion protein (P11362 478-767 limits assumed): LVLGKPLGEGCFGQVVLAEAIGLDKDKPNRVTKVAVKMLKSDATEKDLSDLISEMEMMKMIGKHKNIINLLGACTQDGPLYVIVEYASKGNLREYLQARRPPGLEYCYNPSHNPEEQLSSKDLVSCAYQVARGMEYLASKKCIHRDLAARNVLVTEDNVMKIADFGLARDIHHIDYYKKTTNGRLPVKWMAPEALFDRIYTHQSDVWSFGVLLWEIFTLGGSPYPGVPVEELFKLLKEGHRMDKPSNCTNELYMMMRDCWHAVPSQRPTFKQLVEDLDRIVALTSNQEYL
Sequence of EGFR (P00533 25-1210): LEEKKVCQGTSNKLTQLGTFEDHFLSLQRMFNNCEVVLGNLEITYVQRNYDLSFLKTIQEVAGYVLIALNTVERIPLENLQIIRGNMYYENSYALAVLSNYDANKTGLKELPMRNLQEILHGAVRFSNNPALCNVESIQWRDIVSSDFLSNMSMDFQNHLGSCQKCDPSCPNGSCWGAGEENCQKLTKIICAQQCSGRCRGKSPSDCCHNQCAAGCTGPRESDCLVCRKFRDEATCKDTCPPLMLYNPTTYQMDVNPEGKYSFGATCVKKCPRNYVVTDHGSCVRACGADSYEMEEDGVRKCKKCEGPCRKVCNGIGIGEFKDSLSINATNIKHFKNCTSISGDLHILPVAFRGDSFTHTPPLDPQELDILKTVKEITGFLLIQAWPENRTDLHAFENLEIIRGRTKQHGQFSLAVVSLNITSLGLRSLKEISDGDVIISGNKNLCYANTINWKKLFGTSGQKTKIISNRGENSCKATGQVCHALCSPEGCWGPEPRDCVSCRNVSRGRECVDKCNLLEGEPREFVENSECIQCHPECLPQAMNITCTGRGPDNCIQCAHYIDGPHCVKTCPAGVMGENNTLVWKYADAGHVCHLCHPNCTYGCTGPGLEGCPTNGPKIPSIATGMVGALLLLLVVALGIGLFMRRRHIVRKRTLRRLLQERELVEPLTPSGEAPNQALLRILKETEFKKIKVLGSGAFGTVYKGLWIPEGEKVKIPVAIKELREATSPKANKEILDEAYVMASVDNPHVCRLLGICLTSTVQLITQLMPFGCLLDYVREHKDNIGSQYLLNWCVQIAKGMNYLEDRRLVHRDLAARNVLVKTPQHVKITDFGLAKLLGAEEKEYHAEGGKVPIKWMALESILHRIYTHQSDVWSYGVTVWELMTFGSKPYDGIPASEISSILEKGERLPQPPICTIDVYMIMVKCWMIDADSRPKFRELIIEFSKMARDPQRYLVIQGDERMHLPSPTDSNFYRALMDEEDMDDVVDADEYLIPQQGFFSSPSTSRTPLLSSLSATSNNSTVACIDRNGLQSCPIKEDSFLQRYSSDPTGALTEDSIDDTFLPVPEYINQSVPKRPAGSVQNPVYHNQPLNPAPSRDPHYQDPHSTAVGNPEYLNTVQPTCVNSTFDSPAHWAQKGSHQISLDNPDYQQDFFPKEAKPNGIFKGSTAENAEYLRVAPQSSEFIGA
T2 sequence (P35968 786-1356 limits assumed): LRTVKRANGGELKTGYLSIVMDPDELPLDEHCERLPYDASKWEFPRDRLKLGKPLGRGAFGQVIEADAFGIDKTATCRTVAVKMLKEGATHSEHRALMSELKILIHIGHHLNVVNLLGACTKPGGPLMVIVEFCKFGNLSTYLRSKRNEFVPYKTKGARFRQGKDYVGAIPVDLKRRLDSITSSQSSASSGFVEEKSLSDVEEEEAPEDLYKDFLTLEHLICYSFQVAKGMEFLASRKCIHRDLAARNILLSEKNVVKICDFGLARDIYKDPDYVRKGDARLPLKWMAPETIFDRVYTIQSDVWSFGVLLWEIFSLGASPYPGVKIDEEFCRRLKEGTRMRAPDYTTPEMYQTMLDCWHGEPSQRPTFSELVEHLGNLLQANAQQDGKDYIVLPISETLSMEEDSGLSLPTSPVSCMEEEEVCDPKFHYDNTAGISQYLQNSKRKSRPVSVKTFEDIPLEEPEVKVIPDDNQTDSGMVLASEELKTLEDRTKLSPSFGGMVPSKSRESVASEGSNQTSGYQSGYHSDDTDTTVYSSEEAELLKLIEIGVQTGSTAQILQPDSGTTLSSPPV
T1 sequence (P09619 33-1106): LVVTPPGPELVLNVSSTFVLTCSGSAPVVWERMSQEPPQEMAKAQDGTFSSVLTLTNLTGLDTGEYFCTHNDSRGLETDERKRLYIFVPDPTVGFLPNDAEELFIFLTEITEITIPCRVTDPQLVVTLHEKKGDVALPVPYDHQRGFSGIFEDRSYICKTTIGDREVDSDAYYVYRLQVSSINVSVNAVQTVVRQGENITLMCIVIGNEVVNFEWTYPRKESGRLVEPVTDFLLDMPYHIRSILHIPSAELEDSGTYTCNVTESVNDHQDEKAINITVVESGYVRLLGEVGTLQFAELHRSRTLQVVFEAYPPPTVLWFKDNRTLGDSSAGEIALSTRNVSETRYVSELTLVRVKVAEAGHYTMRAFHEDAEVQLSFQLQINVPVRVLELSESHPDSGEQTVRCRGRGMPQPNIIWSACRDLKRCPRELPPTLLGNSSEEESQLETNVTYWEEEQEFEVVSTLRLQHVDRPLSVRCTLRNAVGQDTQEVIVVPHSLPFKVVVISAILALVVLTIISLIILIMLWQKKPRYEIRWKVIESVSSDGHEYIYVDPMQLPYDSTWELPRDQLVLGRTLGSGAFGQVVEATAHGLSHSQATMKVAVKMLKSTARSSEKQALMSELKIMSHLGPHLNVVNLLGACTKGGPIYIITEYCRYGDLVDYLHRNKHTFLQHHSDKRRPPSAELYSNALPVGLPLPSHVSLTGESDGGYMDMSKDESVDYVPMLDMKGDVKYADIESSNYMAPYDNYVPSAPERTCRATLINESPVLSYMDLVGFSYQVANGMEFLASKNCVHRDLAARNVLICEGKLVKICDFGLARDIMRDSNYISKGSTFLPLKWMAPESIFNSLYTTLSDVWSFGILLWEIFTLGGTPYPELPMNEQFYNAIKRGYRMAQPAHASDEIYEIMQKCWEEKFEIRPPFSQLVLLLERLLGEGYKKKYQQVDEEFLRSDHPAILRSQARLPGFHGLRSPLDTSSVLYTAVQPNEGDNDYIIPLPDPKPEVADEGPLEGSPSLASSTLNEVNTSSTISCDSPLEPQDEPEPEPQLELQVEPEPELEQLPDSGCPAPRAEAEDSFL
Sequence of pyk2 (Q14289 whole entry, species assumed): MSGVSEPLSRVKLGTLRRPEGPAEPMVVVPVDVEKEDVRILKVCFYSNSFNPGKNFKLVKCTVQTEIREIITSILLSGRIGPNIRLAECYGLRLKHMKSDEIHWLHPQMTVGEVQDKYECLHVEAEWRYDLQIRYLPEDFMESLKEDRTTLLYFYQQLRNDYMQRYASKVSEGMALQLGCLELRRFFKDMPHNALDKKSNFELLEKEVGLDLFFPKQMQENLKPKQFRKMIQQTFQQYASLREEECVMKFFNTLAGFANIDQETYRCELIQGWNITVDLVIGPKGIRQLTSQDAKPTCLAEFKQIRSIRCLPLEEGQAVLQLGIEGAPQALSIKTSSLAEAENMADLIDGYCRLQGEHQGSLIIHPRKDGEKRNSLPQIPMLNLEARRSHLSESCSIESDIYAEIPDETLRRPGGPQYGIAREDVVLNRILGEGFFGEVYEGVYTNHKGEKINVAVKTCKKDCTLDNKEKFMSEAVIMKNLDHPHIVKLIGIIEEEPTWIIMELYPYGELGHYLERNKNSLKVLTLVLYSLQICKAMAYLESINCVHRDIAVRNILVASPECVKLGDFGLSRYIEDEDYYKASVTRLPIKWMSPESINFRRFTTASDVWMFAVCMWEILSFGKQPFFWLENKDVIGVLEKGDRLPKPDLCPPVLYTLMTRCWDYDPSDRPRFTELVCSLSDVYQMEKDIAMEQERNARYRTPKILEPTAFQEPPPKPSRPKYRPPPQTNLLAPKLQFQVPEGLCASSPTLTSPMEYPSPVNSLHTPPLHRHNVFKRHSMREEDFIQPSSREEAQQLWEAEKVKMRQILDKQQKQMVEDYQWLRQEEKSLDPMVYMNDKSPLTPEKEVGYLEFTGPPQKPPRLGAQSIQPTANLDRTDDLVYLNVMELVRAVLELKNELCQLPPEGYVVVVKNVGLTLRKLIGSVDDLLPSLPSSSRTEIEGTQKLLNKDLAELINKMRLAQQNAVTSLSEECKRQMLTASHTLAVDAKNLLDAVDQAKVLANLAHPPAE

A word on the IC50: it is the concentration at which inhibition is half-maximal. Turning to `Cc1c(/C=C2\C(=O)Nc3ccc(S(N)(=O)=O)cc32)[nH]c2ccccc12` [Example 175, 3-(3-Methyl-1H-indol-2-ylmethylene)-2-oxo-2,3-dihydro-1H-indole-5-sulfonic acid amide], the IC50 is 55.4 µM in test [1], 0.73 µM in test [2], 1.51 µM in test [3] and 5.53 µM in test [4].

As to `CNS(=O)(=O)c1ccc2c(c1)/C(=C/c1ccc3[nH]ccc3c1)C(=O)N2` [Example 176, 3-(1H-Indol-5-ylmethylene)-2-oxo-2,3-dihydro-1H-indole-5-sulfonic acid methylamide], the IC50 in test [1] was found to be 79.2 µM; in test [2], 0.75 µM; in test [3] it was 2.08 µM; in test [4], 66.1 µM.

Regarding `CCOC(=O)c1c(C)[nH]c(/C=C2\C(=O)Nc3ccc(S(=O)(=O)NC)cc32)c1CCCN1CCN(C)CC1` [Example 119, 2-Methyl-4-[3-(4-methylpiperazin-1-yl)-propyl]-5-(5-methylsulfamoyl-2-oxo-1,2-dihydroindol-3-ylidenemethyl)-1H-pyrrole-3-carboxylic acid ethyl ester], the IC50 was greater than 100 µM in test [1], 6.33 µM in test [3] and 2.02 µM in test [4].

Take `CNS(=O)(=O)c1ccc2c(c1)/C(=C/c1[nH]c(C)c(C(=O)O)c1CCCN(C)C)C(=O)N2` [Example 138, 4-(3-Dimethylaminopropyl)-2-methyl-5-(5-methylsulfamoyl-2-oxo-1,2-dihydroindol-3-ylidenemethyl)-1H-pyrrole-3-carboxylic acid]: the IC50 is 26.2 µM in test [1], 17.6 µM in test [3], 2.18 µM in test [4] and greater than 100 µM in test [5].

Regarding `CCOC(=O)c1c(C)[nH]c(/C=C2\C(=O)Nc3cccc(CCO)c32)c1CCCN1CCCC1` [Example 132, 5-[4-(2-Hydroxyethyl)-2-oxo-1,2-dihydroindol-3-ylidenemethyl]-2-methyl-4-(3-pyrrolidin-1-ylpropyl)-1H-pyrrole-3-carboxylic acid ethyl ester], the IC50 in test [1] is 0.65 µM; in test [4], 0.22 µM.

Regarding `CC(=O)c1ccc2c(c1)C(=Cc1cc3ccccc3[nH]1)C(=O)N2` [Example 158, 5-Acetyl-3-(1H-indol-2-ylmethylene)-1,3-dihydro-indol-2-one], the IC50 in test [1] was 18 µM; in test [2], greater than 20 µM; in test [3] it was 0.26 µM; in test [4], 12.3 µM.

As to `CN(C)S(=O)(=O)c1ccc2c(c1)/C(=C/c1c[nH]c3ccccc13)C(=O)N2` [Example 188, 3-(1H-Indol-3-ylmethylene)-2-oxo-2,3-dihydro-1H-indole-5-sulfonic acid dimethylamide], the IC50 in test [1] was greater than 100 µM; in test [2] it was 17.5 µM; in test [3], greater than 20 µM; in test [4], 66.4 µM.

Consider `CCOC(=O)c1c(C)[nH]c(/C=C2\C(=O)Nc3ccc(S(=O)(=O)NC)cc32)c1CCCN(C)C` [Example 137], for which the IC50 in test [1] was 6.17 µM; in test [3] it was 7.54 µM; in test [4] it was greater than 10 µM; in test [5], greater than 100 µM.

Regarding `CN(C)CCCc1c(/C=C2\C(=O)Nc3cccc(CCO)c32)[nH]c2ccccc12` [Example 150, 3-[3-(3-Dimethylaminopropyl)-1H-indol-2-ylmethylene]-4-(2-hydroxyethyl)-1,3-dihydroindol-2-one], the IC50 amounted to 0.34 µM in test [1], 0.2 µM in test [3] and 0.01 µM in test [4].

As to `CNS(=O)(=O)c1ccc2c(c1)/C(=C/c1c(C)[nH]c3ccccc13)C(=O)N2` [Compound 181, 3-(2-Methyl-1H-indol-3-ylmethylene)-2-oxo-2,3-dihydro-1H-indole 5-sulfonic acid methylamide], the half-maximal inhibitory concentration (IC50) in test [1] is greater than 100 µM; in test [2], 5.74 µM; in test [3], 12.5 µM; in test [4] it was greater than 100 µM.

For `CCOC(=O)c1c(C)[nH]c(/C=C2\C(=O)Nc3ccc(S(N)(=O)=O)cc32)c1CCCN1CCOCC1` [Example 123, 2-Methyl-4-(3-morpholin-4-ylpropyl)-5-(2-oxo-5-sulfamoyl-1,2-dihydroindol-3-ylidenemethyl)-1H-pyrrole-3-carboxylic acid ethyl ester], the values for the IC50 in test [1], in test [3] and in test [4] were 15.2 µM, 16.9 µM and 4.71 µM, respectively.

As for `CNS(=O)(=O)c1ccc2c(c1)/C(=C/c1c[nH]c3ccccc13)C(=O)N2` [Example 178, 3-(1H-Indol-3-ylmethylene)-2-oxo-2,3-dihydro-1H-indole-5-sulfonic acid methylamide], the IC50 was greater than 100 µM in test [1], 3.23 µM in test [2], greater than 20 µM in test [3] and 57.1 µM in test [4].

For `CCOC(=O)c1c(C)[nH]c(/C=C2\C(=O)Nc3cccc(CCO)c32)c1CCCN1CCN(C)CC1` [Example 136, 5-[4-(2-Hydroxyethyl)-2-oxo-1,2-dihydroindol-3-ylidenemethyl]-2-methyl-4-[3-(4methylpiperazin-1-yl)-propyl]-1H-pyrrole-3-carboxylic acid ethyl ester], the figures for the IC50 in test [1], in test [3] and in test [4] were 27 µM, 0.56 µM and 2.77 µM, respectively.

Consider `CNS(=O)(=O)c1ccc2c(c1)/C(=C/c1[nH]c3ccccc3c1CCCN(C)C)C(=O)N2` [Example 149, 3-[3-(3-Dimethylaminopropyl)-1H-indol-2-ylmethylene]-2-oxo-2,3-dihydro-1H-indole-5-sulfonic acid methylamide], for which the IC50 was found to be 5.26 µM in test [1], 0.77 µM in test [2], 2.66 µM in test [3] and 5.02 µM in test [4].

As for `CN(C)S(=O)(=O)c1ccc2c(c1)/C(=C/c1cc3ccccc3[nH]1)C(=O)N2` [Example 186, 3-(1H-Indol-2-ylmethylene)-2-oxo-2,3-dihydro-1H-indole-5-sulfonic acid dimethylamide], the IC50 in test [1] is greater than 100 µM; in test [2] it was 10.4 µM; in test [3] it was 6.12 µM; in test [4] it was greater than 100 µM.

As for `CCOC(=O)c1c(C)[nH]c(/C=C2\C(=O)Nc3ccc(S(N)(=O)=O)cc32)c1CCCN1CCN(C)CC1` [Example 124, 2-Methyl-4-[3-(4-methylpiperazin-1-yl)-propyl]-5-(2-oxo-5-sulfamoyl-1,2-dihydroindol-3ylidenemethyl)-1H-pyrrole-3-carboxylic acid ethyl ester], the IC50 in test [1] was 33.9 µM; in test [3], 13.9 µM; in test [4], 4.21 µM.

Turning to `Cc1[nH]c2ccccc2c1/C=C1\C(=O)Nc2ccc(S(=O)(=O)N(C)C)cc21` [Example 184, 3-(2-Methyl-1H-indol-3-ylmethylene)-2-oxo-2,3-dihydro-1H-indole-5-sulfonic acid dimethylamide], the IC50 in test [1] was greater than 100 µM; in test [2], 8.6 µM; in test [3], greater than 20 µM; in test [4], greater than 100 µM.

Consider `CCOC(=O)c1c(C)[nH]c(/C=C2\C(=O)Nc3ccc(S(=O)(=O)NC)cc32)c1CCCN1CCOCC1` [Example 118, 2-Methyl-5-(5-methylsulfamoyl-2-oxo-1,2-dihydroindol-3-ylidenemethyl)-4-(3-morpholin-4-ylpropyl)-1H-pyrrole-3-carboxylic acid ethyl ester], for which the IC50 is greater than 100 µM in test [1], 9.29 µM in test [3] and 4.24 µM in test [4].

Consider `CN(C)S(=O)(=O)c1ccc2c(c1)/C(=C/c1ccc3[nH]ccc3c1)C(=O)N2` [Example 183, 3-(1H-Indol-5-ylmethylene)-2-oxo-2,3-dihydro-1H-indole-5-sulfonic acid dimethylamide], for which the IC50 in test [1] is greater than 100 µM; in test [2], 7.68 µM; in test [3], 1.55 µM; in test [4], greater than 100 µM.

Consider `CCOC(=O)c1c(C)[nH]c(/C=C2\C(=O)Nc3cccc(CCO)c32)c1CCCN1CCOCC1` [Example 131, 5-[4-(2-Hydroxyethyl)-2-oxo-1,2-dihydroindol-3-ylidenemethyl]-2-methyl-4-(3-morpholin-4-ylpropyl)-1H-pyrrole-3-carboxylic acid ethyl ester], for which the results for the IC50 in test [1] and in test [4] were 23.2 µM and 2.18 µM, respectively.

For `NS(=O)(=O)c1ccc2c(c1)/C(=C/c1ccc3[nH]ccc3c1)C(=O)N2` [Example 185, 3-(1H-Indol-5-ylmethylene)-2-oxo-2,3-dihydro-1H-indole-5-sulfonic acid amide], the IC50 in test [1] was greater than 100 µM; in test [2], 9.43 µM; in test [3], 3.39 µM; in test [4], greater than 100 µM.

Take `CCOC(=O)c1[nH]c(C=C2C(=O)Nc3ccc(S(N)(=O)=O)cc32)c(CCC(=O)O)c1C` [Example 145, 4-(2-Carboxyethyl)-3-methyl-5-(2-oxo-5-sulfamoyl-1,2-dihydro-indol-3-ylidenemethyl)-1H-pyrrole-2-carboxylic acid ethyl ester]: the IC50 in test [1] was greater than 100 µM; in test [2], 15.6 µM; in test [3], 11.8 µM; in test [5], greater than 100 µM.

Turning to `CCOC(=O)c1[nH]c(/C=C2\C(=O)Nc3ccc(S(=O)(=O)N(C)C)cc32)c(CCC(=O)O)c1C` [Example 147, 4-(2-Carboxyethyl)-5-(5-dimethylsulfamoyl-2-oxo-1,2-dihydro-indol-3-ylidenemethyl)-3-methyl-1H-pyrrole-2-carboxylic acid ethyl ester], the IC50 is greater than 100 µM in test [1], greater than 20 µM in test [2], 15.3 µM in test [3] and greater than 100 µM in test [5].
